US12208088B2 (Genentech, Inc., priority 2018, dated 2025)

Biological target: HPK1 (Homo sapiens (Human), UniProt Q92918)
Test: HPK1 Lantha binding assay ("Lanth")
Details: binding assays; Morrison Ki fit
Method in brief: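 Ki values are from Morrison-equation fitting of 665/615 nm TR-FRET signals, taking enzyme level, tracer level and tracer Kd into account. The assay mix held HPK1 (2 nM), Eu-anti-GST antibody (2 nM) and Tracer222 (15 nM). Incubations were two 1 h steps at 23 °C, on 5-fold serial compound dilutions.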

Sequence of HPK1 (Q92918 1-346 limits assumed): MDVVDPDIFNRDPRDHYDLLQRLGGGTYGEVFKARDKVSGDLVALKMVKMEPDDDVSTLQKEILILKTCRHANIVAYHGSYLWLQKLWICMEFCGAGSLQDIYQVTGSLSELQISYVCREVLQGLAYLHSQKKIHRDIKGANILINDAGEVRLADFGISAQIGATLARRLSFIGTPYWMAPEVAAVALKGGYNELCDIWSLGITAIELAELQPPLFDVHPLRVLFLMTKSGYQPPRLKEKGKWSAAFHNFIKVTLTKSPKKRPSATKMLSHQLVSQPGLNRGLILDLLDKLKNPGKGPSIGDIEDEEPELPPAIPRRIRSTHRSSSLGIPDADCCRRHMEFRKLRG

Row | Ki [nM] | Compound
1 | 30 | CN(CC(C)(C)O)C(=O)c1c(N)ccc(-c2cnc3c(c2)C2(CC2)CN3)c1F [Compound 29, 6-amino-3-(1′,2′-dihydrospiro[cyclopropane-1,3′-pyrrolo[2,3-b]pyridin]-5′-yl)-2-fluoro-N-(2-hydroxy-2-methylpropyl)-N-methylbenzamide]
2 | 53.9 | Cc1c(-c2ccc(N)c(C(=O)N(C)C)c2F)cnc2c1C1(CC1)CN2 [Compound 30, 6-Amino-2-fluoro-N,N-dimethyl-3-(4′-methyl-1′,2′-dihydrospiro[cyclopropane-1,3′-pyrrolo[2,3-b]pyridin]-5′-yl)benzamide]
3 | 28.6 | COc1c(-c2ccc(N)c(C(=O)N(C)C)c2F)cnc2c1C1(CC1)CN2 [Compound 31, 6-Amino-2-fluoro-3-(4′-methoxy-1′,2′-dihydrospiro[cyclopropane-1,3′-pyrrolo[2,3-b]pyridin]-5′-yl)-N,N-dimethylbenzamide]
4 | 12.8 | Nc1ccc(-c2cnc3c(c2Cl)C2(CC2)CN3)cc1C(=O)N1C2CCC1CC2 [Compound 32, (2-Amino-5-(4′-chloro-1′,2′-dihydrospiro[cyclopropane-1,3′-pyrrolo[2,3-b]pyridin]-5′-yl)phenyl)(7-azabicyclo[2.2.1]heptan-7-yl)methanone]
5 | 6.15 | Nc1cc(-c2cnc3c(c2Cl)C2(CC2)CN3)cc(-c2ncccc2CO)c1 [Compound 34, (2-(3-Amino-5-(4′-chloro-1′,2′-dihydrospiro[cyclopropane-1,3′-pyrrolo[2,3-b]pyridin]-5′-yl)phenyl)pyridin-3-yl)methanol]
6 | 4.7 | CN(CCO)C(=O)c1c(N)ccc(-c2cnc3c(c2Cl)C2(CC2)CN3)c1F [Compound 36, 6-Amino-3-(4′-chloro-1′,2′-dihydrospiro[cyclopropane-1,3′-pyrrolo[2,3-b]pyridin]-5′-yl)-2-fluoro-N-(2-hydroxyethyl)-N-methylbenzamide]
7 | 2.2 | CN(C)C(=O)c1c(N)ccc(-c2cnc3c(c2Cl)C2(CCC2)CN3)c1F [Compound 37, 6-Amino-3-(4′-chloro-1′,2′-dihydrospiro[cyclobutane-1,3′-pyrrolo[2,3-b]pyridin]-5′-yl)-2-fluoro-N,N-dimethylbenzamide]
8 | 24.2 | CN(C)C(=O)c1c(N)ccc(-c2cnc3c(c2Cl)[C@]2(CC[C@@H](O)C2)CN3)c1F [Compound 38a]
9 | 8.47 | CN(C)C(=O)c1c(N)ccc(-c2cnc3c(c2Cl)[C@]2(CC[C@H](O)C2)CN3)c1F [Compound 38c, 6-Amino-3-((1R,3S)-4′-chloro-3-hydoxy-1′,2′-dihydrospiro[cyclopentane-1,3′-pyrrolo[2,3-b]pyridin]5′-yl)-2-fluoro-N,N-dimethylbenzamide]
10 | 17.2 | CN(C)C(=O)c1c(N)ccc(-c2cnc3c(c2Cl)C2(CN3)CC2CO)c1F (stereo not shown) [Compound 39, 6-Amino-3-(4′-chloro-2-(hydroxymethyl)-1′,2′-dihydrospiro[cyclopropane-1,3′-pyrrolo[2,3-b]pyridin]-5′-yl)-2-fluoro-N,N-dimethylbenzamide]
11 | 27.7 | CN(C)C(=O)c1c(N)ccc(-c2cnc3c(c2Cl)[C@@]2(CN3)C[C@H]2CO)c1F [Compound 39a, 6-Amino-3-((1R,2R)-4′-chloro-2-(hydroxymethyl)-1′,2′-dihydrospiro[cyclopropane-1,3′-pyrrolo[2,3-b]pyridin]-5′-yl)-2-fluoro-N,N-dimethylbenzamide]
12 | 40.5 | CN(C)C(=O)c1c(N)ccc(-c2cnc3c(c2Cl)[C@]2(CN3)C[C@@H]2CO)c1F [Compound 39b, 6-Amino-3-((1S,2S)-4′-chloro-2-(hydroxymethyl)-1′,2′-dihydrospiro[cyclopropane-1,3′-pyrrolo[2,3-b]pyridin]-5′-yl)-2-fluoro-N,N-dimethylbenzamide]
13 | 15.3 | CN(C)C(=O)c1c(N)ccc(-c2cnc3c(c2Cl)C2(CN3)Cc3ccncc3C2)c1F (stereo not shown) [Compound 40, 6-Amino-3-(4′-chloro-1′,2′,5,7-tetrahydrospiro[cyclopenta[c]pyridine-6,3′-pyrrolo[2,3-b]pyridin]-5′-yl)-2-fluoro-N,N-dimethylbenzamide]
14 | 100 | O=C1CNCCN1c1cccc(-c2cnc3c(c2)C2(CC2)CN3)c1 [Compound 42, 1-(3-(1′,2′-Dihydrospiro[cyclopropane-1,3′-pyrrolo[2,3-b]pyridin]-5′-yl)phenyl)piperazin-2-one]
15 | 81.5 | OCc1cccnc1-c1cccc(-c2cnc3c(c2)C2(CC2)CN3)c1 [Compound 43, (2-(3-(1′,2′-Dihydrospiro[cyclopropane-1,3′-pyrrolo[2,3-b]pyridin]-5′-yl)phenyl)pyridin-3-yl)methanol]
16 | 4.4 | CN(CCO)C(=O)c1c(N)ccc(-c2cnc3c(c2Cl)C2(CCC2)CN3)c1F [Compound 44, 6-Amino-3-(4′-chloro-1′,2′-dihydrospiro[cyclobutane-1,3′-pyrrolo[2,3-b]pyridin]-5′-yl)-2-fluoro-N-(2-hydroxyethyl)-N-methylbenzamide]
17 | 43.7 | CN(CCO)C(=O)c1cccc(-c2cnc3c(c2Cl)C2(CC2)CN3)c1F [Compound 45, 3-(4′-Chloro-1′,2′-dihydrospiro[cyclopropane-1,3′-pyrrolo[2,3-b]pyridin]-5′-yl)-2-fluoro-N-(2-hydroxyethyl)-N-methylbenzamide]

Row | Ki [nM] | Compound
18 | 38.6 | CCN(CCO)C(=O)c1cccc(-c2cnc3c(c2Cl)C2(CC2)CN3)c1F [Compound 46, 3-(4′-Chloro-1′,2′-dihydrospiro[cyclopropane-1,3′-pyrrolo[2,3-b]pyridin]-5′-yl)-N-ethyl-2-fluoro-N-(2-hydroxyethyl)benzamide]
19 | 88.5 | O=C(c1cccc(-c2cnc3c(c2Cl)C2(CC2)CN3)c1F)N(CCO)CCO [Compound 47, 3-(4′-Chloro-1′,2′-dihydrospiro[cyclopropane-1,3′-pyrrolo[2,3-b]pyridin]-5′-yl)-2-fluoro-N,N-bis(2-hydroxyethyl)benzamide]
20 | 151 | O=C(c1cccc(-c2cnc3c(c2Cl)C2(CC2)CN3)c1F)N1CCNCC1 [Compound 48, (3-(4′-Chloro-1′,2′-dihydrospiro[cyclopropane-1,3′-pyrrolo[2,3-b]pyridin]-5′-yl)-2-fluorophenyl)(piperazin-1-yl)methanone]
21 | 55.3 | O=C(c1cccc(-c2cnc3c(c2Cl)C2(CC2)CN3)c1F)N1CC(O)C1 [Compound 49]
22 | 139 | CC(=O)NC1CN(C(=O)c2cccc(-c3cnc4c(c3Cl)C3(CC3)CN4)c2F)C1 [Compound 50, N-(1-(3-(4′-Chloro-1′,2′-dihydrospiro[cyclopropane-1,3′-pyrrolo[2,3-b]pyridin]-5′-yl)-2-fluorobenzoyl)azetidin-3-yl)acetamide]
23 | 68.2 | NC1CN(C(=O)c2cccc(-c3cnc4c(c3Cl)C3(CC3)CN4)c2F)C1 [Compound 51, (3-Aminoazetidin-1-yl)(3-(4′-chloro-1′,2′-dihydrospiro[cyclopropane-1,3′-pyrrolo[2,3-b]pyridin]-5′-yl)-2-fluorophenyl)methanone]
24 | 19 | COc1c(-c2ccc(N)c(C(=O)N(C)CCO)c2F)cnc2c1C1(CCC1)CN2 [Compound 52, 6-Amino-2-fluoro-N-(2-hydroxyethyl)-3-(4′-methoxy-1′,2′-dihydrospiro[cyclobutane-1,3′-pyrrolo[2,3-b]pyridin]-5′-yl)-N-methylbenzamide]
25 | 28.9 | Cc1c(-c2ccc(N)c(C(=O)N(C)C)c2F)cnc2c1C1(CCC1)CN2 [Compound 53, 6-Amino-2-fluoro-N,N-dimethyl-3-(4′-methyl-1′,2′-dihydrospiro[cyclobutane-1,3′-pyrrolo[2,3-b]pyridin]-5′-yl)benzamide]
26 | 64.4 | CC(=O)Nc1cc(C#N)cc2c(-c3cnc4c(c3)C3(CC3)CN4)cn(C)c12 [Compound 54, N-(5-Cyano-3-(1′,2′-dihydrospiro[cyclopropane-1,3′-pyrrolo[2,3-b]pyridin]-5′-yl)-1-methyl-1H-indol-7-yl)acetamide]
27 | 84.7 | O=C1NCCN1c1cccc(-c2cnc3c(c2Cl)C2(CC2)CN3)c1 [Compound 55, 1-(3-(4′-Chloro-1′,2′-dihydrospiro[cyclopropane-1,3′-pyrrolo[2,3-b]pyridin]-5′-yl)phenyl)imidazolidin-2-one]
28 | 35.3 | N#Cc1cc2c(-c3cnc4c(c3)C3(CC3)CN4)c[nH]c2cn1 [Compound 56, 3-(1′,2′-Dihydrospiro[cyclopropane-1,3′-pyrrolo[2,3-b]pyridin]-5′-yl)-1H-pyrrolo[2,3-c]pyridine-5-carbonitrile]
29 | 9.06 | Cn1cccc(-c2cccc(-c3cnc4c(c3Cl)C3(CC3)CN4)c2)c1=O [Compound 57, 3-(3-(4′-Chloro-1′,2′-dihydrospiro[cyclopropane-1,3′-pyrrolo[2,3-b]pyridin]-5′-yl)phenyl)-1-methylpyridin-2(1H)-one]
30 | 43.7 | O=C1NCCCC1c1cccc(-c2cnc3c(c2Cl)C2(CC2)CN3)c1 (stereo not shown) [Compound 58, 3-(3-(4′-Chloro-1′,2′-dihydrospiro[cyclopropane-1,3′-pyrrolo[2,3-b]pyridin]-5′-yl)phenyl)piperidin-2-one]
31 | 14.2 | O=C1NCCCN1c1cccc(-c2cnc3c(c2Cl)C2(CC2)CN3)c1 [Compound 59, 1-(3-(4′-Chloro-1′,2′-dihydrospiro[cyclopropane-1,3′-pyrrolo[2,3-b]pyridin]-5′-yl)phenyl)tetrahydropyrimidin-2(1H)-one]
32 | 16 | O=C1CCCCN1c1cccc(-c2cnc3c(c2Cl)C2(CC2)CN3)c1 [Compound 60, 1-(3-(4′-Chloro-1′,2′-dihydrospiro[cyclopropane-1,3′-pyrrolo[2,3-b]pyridin]-5′-yl)phenyl)piperidin-2-one]
33 | 12.8 | Nc1cc(-c2cnc3c(c2Cl)C2(CCC(O)C2)CN3)cc(-c2ncccc2CO)c1 (stereo not shown) [Compound 61, 5′-(3-Amino-5-(3-(hydroxymethyl)pyridin-2-yl)phenyl)-4′-chloro-1′,2′-dihydrospiro[cyclopentane-1,3′-pyrrolo[2,3-b]pyridin]-3-ol]
34 | 66.4 | NS(=O)(=O)c1cccc(-c2cnc3c(c2)C2(CC2)CN3)c1 [Compound 62, 3-(1′,2′-Dihydrospiro[cyclopropane-1,3′-pyrrolo[2,3-b]pyridin]-5′-yl)benzenesulfonamide]
